{
  "source": "paper PMC5378303",
  "about": "(Nature, 2017)",
  "target": "T1, phi3T AimR receptor (Bacillus phage phi3T, UniProt P0DOE3)",
  "T1 sequence (P0DOE3 1-378)": "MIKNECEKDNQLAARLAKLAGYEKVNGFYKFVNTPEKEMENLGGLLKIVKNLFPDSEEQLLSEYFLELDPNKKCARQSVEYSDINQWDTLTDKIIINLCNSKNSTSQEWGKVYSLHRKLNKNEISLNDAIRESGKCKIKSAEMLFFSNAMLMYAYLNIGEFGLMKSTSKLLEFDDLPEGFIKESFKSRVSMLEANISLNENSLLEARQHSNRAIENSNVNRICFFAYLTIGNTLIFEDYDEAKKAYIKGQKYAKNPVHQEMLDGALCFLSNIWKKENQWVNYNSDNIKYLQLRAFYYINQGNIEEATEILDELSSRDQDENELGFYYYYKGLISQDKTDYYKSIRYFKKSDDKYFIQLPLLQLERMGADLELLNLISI",
  "experiment": "Microscale thermophoresis",
  "assay_type": "binding",
  "conditions": "label-free MST, 200 nM AimR, peptide 9-4000 nM, pH 8.0, 23 °C, 3 runs",
  "data": [
    {"substance": "GMPRGA", "values": [
      {"measurement": "binding to phi3T AimR (in words)", "result": "did not show specific binding to the phi3T AimR receptor"}
    ]}
  ]
}
